We go through three compounds from patent publication US20180318343A1, “THERAPEUTIC AGENT FOR SKIN WOUND OR ROUGH SKIN” (JFE MINERAL COMPANY, LTD., priority 2015, published 2018).

Data set [1] can be described thus: Dissolution test by stirring method in saline. The conditions noted are these: per BET surface area, mass ratio 1:50, stirring 500 rpm, 37° C., 3 hours.
Description: The amount of dissolved Zn^2+ ions is measured in the present description, as follows: The surface areas of samples, which are produced with varying pH values at production by the same process as that for Preparation Example 2 of Examples to be described later, are measured beforehand by the BET method (BET specific surface area analyzer: High Precision, Multi-Analyte Gas Absorption Analyzer, manufactured by Quantachrome Instruments Japan G.K.). For each sample, the Zn^2+ ion concentration after stirring in saline is measured with an ICP emission spectrometer (ICPE-9000, manufactured by Shimadzu Corporation) to thereby obtain the amount of dissolved Zn^2+ ions, and then the amount of dissolved Zn^2+ ions is divided by the previously measured surface area. The mass ratio between each sample and the saline is set to 1:50, and the amount of Zn^2+ ions dissolved in the saline is measured after 3-hour stirring at 500 rpm at 37° C. by means of a rotor. […]
A dissolution test by a stirring method was conducted on 0.6 g each of dry powders obtained in Preparation Example 2 using 30 g of saline, and the amount of dissolved Zn^2+ ions and the pH were measured. […] Then the pH and the Zn^2+ ion concentration after the dissolution test were measured. […]
The next data set concerns skin. The conditions noted are these: in vivo; cited from earlier work.
The test system of the next data set is fibroblast. The conditions noted are these: cited from earlier work.

Take `[OH-].[OH-].[Zn+2]` [zinc hydroxide]: the “Amount of dissolved Zn^2+ ions after dissolution test” value in data set [1] was “less than 0.1 μg/m^2”.

As to `[Zn+2]` [zinc ions], the “zinc ion level leading to increased inflammatory cell infiltration in skin and remarkably delayed reepithelization” value in the data set on skin is on record as “not less than 15 mmol/L”. The “zinc ion concentration that does not exhibit toxicity to a fibroblast” value with fibroblast was “not more than 500 μmol/L”. In the case of `[O]=[Zn]` [zinc oxide], the “Amount of dissolved Zn^2+ ions after dissolution test” value in data set [1] is “sufficient”.
